{
  "source": "patent US20110318768A1",
  "about": "“METHOD FOR DETERMINING SENSITIVITY OF TUMOR CELLS TO TYROSINE KINASE INHIBITOR AND COMPUTER PROGRAM PRODUCT” (SYSMEX CORPORATION, priority 2010, published 2011)",
  "key": {"[1]": {"tested_on": "tyrosine kinase in cell membrane fraction of BT-483", "experiment": "Tyrosine kinase activity inhibition rate in cell membrane fraction (Poly-Glu4-Tyr substrate)", "format": "biochemical", "in_short": "(§1)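 Each inhibitor is tested at a single 25 μM against membrane-fraction kinase (5 μg/ml protein) with 25 μM ATP. Substrate is biotinylated Poly-Glu4-Tyr on NeutrAvidin wells, 37 °C for 60 min. Signal comes from anti-pTyr-HRP chemiluminescence, relative to DMSO control.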"}, "[2]": {"tested_on": "tyrosine kinase in cell membrane fraction of CAMA-1", "experiment": "Tyrosine kinase activity inhibition rate in cell membrane fraction (Poly-Glu4-Tyr substrate)", "format": "biochemical", "in_short": "as §1"}, "[3]": {"tested_on": "tyrosine kinase in cell membrane fraction of HCC1954", "experiment": "Tyrosine kinase activity inhibition rate in cell membrane fraction (Poly-Glu4-Tyr substrate)", "format": "biochemical", "in_short": "as §1"}, "[4]": {"tested_on": "tyrosine kinase in cell membrane fraction of HCC202", "experiment": "Tyrosine kinase activity inhibition rate in cell membrane fraction (Poly-Glu4-Tyr substrate)", "format": "biochemical", "in_short": "as §1"}, "[5]": {"tested_on": "tyrosine kinase in cell membrane fraction of MDA-MB-415", "experiment": "Tyrosine kinase activity inhibition rate in cell membrane fraction (Poly-Glu4-Tyr substrate)", "format": "biochemical", "in_short": "as §1"}, "[6]": {"tested_on": "tyrosine kinase in cell membrane fraction of MDA-MB-435S", "experiment": "Tyrosine kinase activity inhibition rate in cell membrane fraction (Poly-Glu4-Tyr substrate)", "format": "biochemical", "in_short": "as §1"}, "[7]": {"tested_on": "tyrosine kinase in cell membrane fraction of MDA-MB-453", "experiment": "Tyrosine kinase activity inhibition rate in cell membrane fraction (Poly-Glu4-Tyr substrate)", "format": "biochemical", "in_short": "as §1"}, "[8]": {"tested_on": "tyrosine kinase in cell membrane fraction of MDA-MB-468", "experiment": "Tyrosine kinase activity inhibition rate in cell membrane fraction (Poly-Glu4-Tyr substrate)", "format": "biochemical", "in_short": "as §1"}, "[9]": {"tested_on": "tyrosine kinase in cell membrane fraction of SK-BR-3", "experiment": "Tyrosine kinase activity inhibition rate in cell membrane fraction (Poly-Glu4-Tyr substrate)", "format": "biochemical", "in_short": "as §1"}, "[10]": {"tested_on": "tyrosine kinase in cell membrane fraction of UACC812", "experiment": "Tyrosine kinase activity inhibition rate in cell membrane fraction (Poly-Glu4-Tyr substrate)", "format": "biochemical", "in_short": "as §1"}, "[11]": {"tested_on": "tyrosine kinase in cell membrane fraction of ZR-75-30", "experiment": "Tyrosine kinase activity inhibition rate in cell membrane fraction (Poly-Glu4-Tyr substrate)", "format": "biochemical", "in_short": "as §1"}, "[12]": {"tested_on": "tyrosine kinase of BT-474", "conditions": "US 2011027809; cited from earlier work"}, "[13]": {"tested_on": "tyrosine kinase of SK-Br-3", "conditions": "US 2011027809; cited from earlier work"}, "[14]": {"tested_on": "tyrosine kinase of MDA-MB231", "conditions": "US 2011027809; cited from earlier work"}, "tyrosine kinase of MCF7": {"tested_on": "tyrosine kinase of MCF7", "conditions": "US 2011027809; cited from earlier work"}, "tyrosine kinase of T47D": {"tested_on": "tyrosine kinase of T47D", "conditions": "US 2011027809; cited from earlier work"}, "[15]": {"conditions": "25 μM kinase inhibitor, 25 μM ATP"}},
  "data": [
    {"smiles": "COc1cc2ncnc(Nc3ccc(Oc4ccccc4)cc3)c2cc1OC", "note": "[Inhibitor 10, 4-(4′-phenoxyanilino)-6,7-dimethoxyquinazoline]", "values": [
      {"measurement": "Example 1 Inhibitory capacity of Src inhibitor", "setting": "[1]", "value": "high (the term “high” means a cell line whose inhibition rate of the Src inhibitor is more than the threshold value)"},
      {"measurement": "Inhibition rate", "setting": "[1]; [15]", "value": 78.5, "unit": "%"},
      {"measurement": "Example 1 Inhibitory capacity of Src inhibitor", "setting": "[2]", "value": "low (the term “low” means a cell line whose inhibition rate of the Src inhibitor is lower than the threshold value (=43.4%))"},
      {"measurement": "Inhibition rate", "setting": "[2]; [15]", "value": 34.6, "unit": "%"},
      {"measurement": "Example 1 Inhibitory capacity of Src inhibitor", "setting": "[3]", "value": "high (the term “high” means a cell line whose inhibition rate of the Src inhibitor is more than the threshold value)"},
      {"measurement": "Inhibition rate", "setting": "[3]; [15]", "value": 46.5, "unit": "%"},
      {"measurement": "Example 1 Inhibitory capacity of Src inhibitor", "setting": "[4]", "value": "low (the term “low” means a cell line whose inhibition rate of the Src inhibitor is lower than the threshold value (=43.4%))"},
      {"measurement": "Inhibition rate", "setting": "[4]; [15]", "value": 26.3, "unit": "%"},
      {"measurement": "Example 1 Inhibitory capacity of Src inhibitor", "setting": "[5]", "value": "high (the term “high” means a cell line whose inhibition rate of the Src inhibitor is more than the threshold value)"},
      {"measurement": "Inhibition rate", "setting": "[5]; [15]", "value": 68.6, "unit": "%"},
      {"measurement": "Example 1 Inhibitory capacity of Src inhibitor", "setting": "[6]", "value": "high (the term “high” means a cell line whose inhibition rate of the Src inhibitor is more than the threshold value)"},
      {"measurement": "Inhibition rate", "setting": "[6]; [15]", "value": 44.9, "unit": "%"},
      {"measurement": "Example 1 Inhibitory capacity of Src inhibitor", "setting": "[7]", "value": "low (the term “low” means a cell line whose inhibition rate of the Src inhibitor is lower than the threshold value (=43.4%))"},
      {"measurement": "Inhibition rate", "setting": "[7]; [15]", "value": 16.3, "unit": "%"},
      {"measurement": "Example 1 Inhibitory capacity of Src inhibitor", "setting": "[8]", "value": "high (the term “high” means a cell line whose inhibition rate of the Src inhibitor is more than the threshold value)"},
      {"measurement": "Inhibition rate", "setting": "[8]; [15]", "value": 81.0, "unit": "%"},
      {"measurement": "Example 1 Inhibitory capacity of Src inhibitor", "setting": "[9]", "value": "low (the term “low” means a cell line whose inhibition rate of the Src inhibitor is lower than the threshold value (=43.4%))"},
      {"measurement": "Inhibition rate", "setting": "[9]; [15]", "value": 43.3, "unit": "%"},
      {"measurement": "Inhibition rate", "setting": "[10]; UACC812, 25 μM kinase inhibitor, 25 μM ATP", "value": 81.5, "unit": "%"},
      {"measurement": "Example 1 Inhibitory capacity of Src inhibitor", "setting": "[10]; UACC-812", "value": "high (the term “high” means a cell line whose inhibition rate of the Src inhibitor is more than the threshold value)"},
      {"measurement": "Example 1 Inhibitory capacity of Src inhibitor", "setting": "[11]", "value": "low (the term “low” means a cell line whose inhibition rate of the Src inhibitor is lower than the threshold value (=43.4%))"},
      {"measurement": "Inhibition rate", "setting": "[11]; [15]", "value": 37.3, "unit": "%"},
      {"measurement": "tyrosine kinase activity inhibitory effects caused by the Src inhibitor", "setting": "[12]", "value": "high"},
      {"measurement": "tyrosine kinase activity inhibitory effects caused by the Src inhibitor", "setting": "[13]", "value": "high"},
      {"measurement": "tyrosine kinase activity inhibitory effects caused by the Src inhibitor", "setting": "[14]", "value": "low"},
      {"measurement": "tyrosine kinase activity inhibitory effects caused by the Src inhibitor", "setting": "tyrosine kinase of MCF7", "value": "low"},
      {"measurement": "tyrosine kinase activity inhibitory effects caused by the Src inhibitor", "setting": "tyrosine kinase of T47D", "value": "low"}
    ]}
  ]
}
